The values that follow come from patent US10696689B2, “Somatostatin modulators and uses thereof” (CRINETICS PHARMACEUTICALS, INC., priority 2018, dated 2020).

In assay [1] the target is human SST2 receptor (SSTR2) (Homo sapiens (Human), UniProt P30874). In words: cAMP assay: inhibition of cAMP via human SST2 receptor in CHO-K1 cells. The conditions noted are these: CHO-K1 cells stably expressing human SSTR2, NKH477 stimulated. In kind it is cell-based. From the text: (§1) General overview: All five SSTR subtypes are Gi coupled G-protein coupled receptors (GPCRs) that lead to decreases in intracellular cyclic AMP (cAMP) when activated by an agonist. Therefore, measurement of intracellular cAMP levels can be used to assess whether compounds of the invention are agonists of SSTR subtypes (John Kelly, Troy Stevens, W. Joseph Thompson, and Roland Seifert, Current Protocols in Pharmacology, 2005, 2.2.1-2.2). One example of an intracellular cAMP assay is described below.
(§2) Four days prior to the assay, 5,000 Chinese hamster ovary cells (CHO-K1, ATCC # CCL-61) stably expressing the human somatostatin receptor subtype 2 are plated in each well of a 96-well tissue culture-treated plate in Ham's F12 growth media (ThermoFisher #10-080-CM) supplemented with 10% donor bovine serum (Gemini Bio-Products #100-506), 100 U/mL penicillin; 100 ug/mL streptomycin; 2 mM L-glutamine (Gemini Bio-Products #400-110) and 0.2 mg/mL hygromycin B (GoldBio #31282-04-9). The cells are cultured at 37° C., 5% CO2 and 95% humidity. On the day of the assay, the media is aspirated and the cells are treated with 50 μL of 1.6 μM NKH477 (Sigma # N3290) plus various dilutions of compounds of the invention in assay buffer [1× Hank's Balanced Salt Solution (ThermoFisher # SH3058802), 0.5 mM HEPES pH 7.4, 0.1% bovine serum albumin, 0.2 mM 3-Isobutyl-1-methylxanthine (IBMX, VWR #200002-790)]. The cells are incubated for 20 minutes at 37° C. (the final concentration of the compounds of the invention are typically 0-10,000 nM). The cells are treated with 50 μL of lysis buffer (HRTF cAMP kit, Cisbio). The lysate is transferred to 384-well plates and cAMP detection and visualization antibodies are added and incubated for 1-24 hours at room temperature. The time-resolved fluorescent signal is read with a Tecan M1000Pro multiplate reader. The intracellular cAMP concentrations are calculated by regression to a standard curve and are plotted vs. the concentration of the compounds of the invention and the EC50 of the compounds are calculated using standard methods. All data manipulations are in GraphPad Prism v6.
For orientation: Cyclic AMP is a second messenger, typically raised through Gs and lowered through Gi signalling.

The next assay has as its system hSSTR2 vs. hSSTR4. In words: Selectivity for inhibition of cAMP via hSSTR2 vs. hSSTR4. In kind it is cell-based, human.
Source text: as §1, §2

Chain of human SST2 receptor (SSTR2) (P30874 whole entry): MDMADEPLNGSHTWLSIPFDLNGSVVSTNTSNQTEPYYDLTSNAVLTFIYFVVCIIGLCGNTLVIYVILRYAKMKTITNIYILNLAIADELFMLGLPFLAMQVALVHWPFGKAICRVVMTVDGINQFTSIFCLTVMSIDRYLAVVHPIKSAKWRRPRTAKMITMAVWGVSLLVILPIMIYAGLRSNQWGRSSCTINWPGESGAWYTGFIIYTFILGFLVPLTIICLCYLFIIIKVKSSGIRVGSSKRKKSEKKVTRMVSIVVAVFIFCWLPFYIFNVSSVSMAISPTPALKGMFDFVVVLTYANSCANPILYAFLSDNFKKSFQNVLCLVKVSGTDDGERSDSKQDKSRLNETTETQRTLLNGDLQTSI

On to `COc1cc(C#N)cc2[nH]c(-c3c(N)ncc(-c4cc(C)cc(F)c4)c3N3CCC(N)CC3)nc12` [Compound 1-1, 2-[2-amino-4-(4-aminopiperidin-1-yl)-5-(3-fluoro-5-methylphenyl)pyridin-3-yl]-4-methoxy-1H-1,3-benzodiazole-6-carbonitrile], for which, in assay [1], the EC50 – broadly, the concentration at which the effect is half-maximal – was less than 0.1 nM. Also, the “hSST4/hSST2 (ratio)” value with hSSTR2 vs. hSSTR4 (Table B) is recorded as “a (a = above 50,)”.

For `COc1cc(C#N)cc2[nH]c(-c3c(N)ncc(-c4cc(F)cc(Cl)c4)c3N3CCC(N)CC3)nc12` [Compound 1-2, 2-[2-amino-4-(4-aminopiperidin-1-yl)-5-(3-chloro-5-fluorophenyl)pyridin-3-yl]-4-methoxy-1H-1,3-benzodiazole-6-carbonitrile], the concentration giving a half-maximal response (EC50) in assay [1] lay within 0.1 to 1 nM.

On to `COc1cc(C#N)cc2nc(-c3c(N(C)C)ncc(-c4cc(C)cc(F)c4)c3N3CCC(N)CC3)[nH]c12` [Compound 1-3, 2-[4-(4-aminopiperidin-1-yl)-2-(dimethylamino)-5-(3-fluoro-5-methylphenyl)pyridin-3-yl]-4-methoxy-1H-1,3-benzodiazole-6-carbonitrile], for which the EC50 in assay [1] is not below 1 nM.

In turn, `COC(=O)c1ncc(-c2cc(C)cc(F)c2)c(N2CCC(N)CC2)c1-c1nc2cc(F)cc(OC)c2[nH]1` [Compound 2-1, methyl 4-(4-aminopiperidin-1-yl)-3-(6-fluoro-4-methoxy-1H-1,3-benzodiazol-2-yl)-5-(3-fluoro-5-methylphenyl)pyridine-2-carboxylate] gave a 50% effective concentration (EC50) in assay [1] of 0.1 to 1 nM. The “hSST4/hSST2 (ratio)” value in the assay on hSSTR2 vs. hSSTR4 (Table B) is “d (d = between 1 and 2.5;)”.

In assay [1], `COc1cc(F)cc2nc(-c3c(C#N)ncc(-c4cc(C)cc(F)c4)c3N3CCC(N)CC3)[nH]c12` [Compound 2-2, 4-(4-aminopiperidin-1-yl)-3-(6-fluoro-4-methoxy-1H-1,3-benzodiazol-2-yl)-5-(3-fluoro-5-methylphenyl)pyridine-2-carbonitrile] returned a concentration giving a half-maximal response (EC50) of 0.1 to 1 nM.

In assay [1], `COc1cc(F)cc2nc(-c3c(C(N)=O)ncc(-c4cc(C)cc(F)c4)c3N3CCC(N)CC3)[nH]c12` [Compound 2-3, 4-(4-aminopiperidin-1-yl)-3-(6-fluoro-4-methoxy-1H-1,3-benzodiazol-2-yl)-5-(3-fluoro-5-methylphenyl)pyridine-2-carboxamide] came in with an EC50 of 0.1 to 1 nM.

Turning to `Cc1cc(F)cc(-c2cnc(N)c(-c3nc4c(F)cc(F)cc4[nH]3)c2N2CC[C@@H]3NCCO[C@H]3C2)c1` [Compound 3-1, 4-[(4αS,8αS)-octahydro-1H-pyrido[3,4-b][1,4]oxazin-6-yl]-3-(4,6-difluoro-1H-1,3-benzodiazol-2-yl)-5-(3-fluoro-5-methylphenyl)pyridin-2-amine], in assay [1], the concentration for a half-maximal effect (EC50) is less than 0.1 nM.

`Nc1ncc(-c2cc(F)cc(F)c2)c(N2CCC3OCCNC3C2)c1-c1nc2c(F)cc(F)cc2[nH]1` (centres unmarked) [Compound 3-2, 4-[(4αS,8αS)-octahydro-1H-pyrido[3,4-b][1,4]oxazin-6-yl]-3-(4,6-difluoro-1H-1,3-benzodiazol-2-yl)-5-(3,5-difluorophenyl)pyridin-2-amine] displayed a concentration giving a half-maximal response (EC50) in assay [1] of 0.1 to 1 nM.

`CNc1ncc(-c2cc(F)cc(F)c2)c(N2CC[C@@H]3NCCO[C@H]3C2)c1-c1nc2c(F)cc(F)cc2[nH]1` [Compound 3-6, 4-[(4αS,8αS)-octahydro-1H-pyrido[3,4-b][1,4]oxazin-6-yl]-3-(4,6-difluoro-1H-1,3-benzodiazol-2-yl)-5-(3,5-difluorophenyl)-N-methylpyridin-2-amine]: the EC50 in assay [1] lay in the range of 0.1 to 1 nM.

On to `Nc1ncc(-c2cc(F)cc(Cl)c2)c(N2CC[C@@H]3NCCO[C@H]3C2)c1-c1nc2c(F)cc(F)cc2[nH]1` [Compound 3-7, 4-[(4αS,8αS)-octahydro-1H-pyrido[3,4-b][1,4]oxazin-6-yl]-5-(3-chloro-5-fluorophenyl)-3-(4,6-difluoro-1H-1,3-benzodiazol-2-yl)pyridin-2-amine], for which, in assay [1], the EC50 is less than 0.1 nM.

In the case of `COc1cc(F)cc(-c2cnc(N)c(-c3nc4c(F)cc(F)cc4[nH]3)c2N2CCC3OCCNC3C2)c1` (centres unmarked) [Compound 3-8, 4-[(4αS,8αS)-octahydro-1H-pyrido[3,4-b][1,4]oxazin-6-yl]-3-(4,6-difluoro-1H-1,3-benzodiazol-2-yl)-5-(3-fluoro-5-methoxyphenyl)pyridin-2-amine], in assay [1], the concentration for a half-maximal effect (EC50) was less than 0.1 nM.

Turning to `COc1cc(F)cc2[nH]c(-c3c(N)ncc(-c4cccc(F)c4)c3N3CC[C@@H]4NCCO[C@H]4C3)nc12` [Compound 3-9, 4-[(4αS,8αS)-octahydro-1H-pyrido[3,4-b][1,4]oxazin-6-yl]-3-(6-fluoro-4-methoxy-1H-1,3-benzodiazol-2-yl)-5-(3-fluorophenyl)pyridin-2-amine], the EC50 in assay [1] lay within 0.1 to 1 nM. Besides, in the assay with hSSTR2 vs. hSSTR4 (Table C), the “hSST4/hSST2 (ratio)” value was “c (c = between 2.5 and 15;)”.

Consider `CNc1ncc(-c2cccc(F)c2)c(N2CC[C@@H]3NCCO[C@H]3C2)c1-c1nc2c(OC)cc(F)cc2[nH]1` [Compound 3-10, 4-[(4αS,8αS)-octahydro-1H-pyrido[3,4-b][1,4]oxazin-6-yl]-3-(6-fluoro-4-methoxy-1H-1,3-benzodiazol-2-yl)-5-(3-fluorophenyl)-N-methylpyridin-2-amine], for which the EC50 in assay [1] was 0.1 to 1 nM. Also, the “hSST4/hSST2 (ratio)” value with hSSTR2 vs. hSSTR4 (Table C) is given as “a (a = above 50,)”.

The compound `CNc1ncc(-c2cccc(F)c2)c(N2CC[C@@H]3NCCO[C@H]3C2)c1-c1nc2c(OC)cc(C#N)cc2[nH]1` [Compound 3-12, 2-{4-[(4αS,8αS)-octahydro-1H-pyrido[3,4-b][1,4]oxazin-6-yl]-5-(3-fluorophenyl)-2-(methylamino)pyridin-3-yl}-4-methoxy-1H-1,3-benzodiazole-6-carbonitrile] yielded a 50% effective concentration (EC50) in assay [1] not below 1 nM. Besides, the “hSST4/hSST2 (ratio)” value in the assay on hSSTR2 vs. hSSTR4 (Table C) is reported as “a (a = above 50,)”.

`CNc1ncc(-c2cc(F)cc(Cl)c2)c(N2CC[C@@H]3NCCO[C@H]3C2)c1-c1nc2c(OC)cc(F)cc2[nH]1` [Compound 3-13, 4-[(4αS,8αS)-octahydro-1H-pyrido[3,4-b][1,4]oxazin-6-yl]-5-(3-chloro-5-fluorophenyl)-3-(6-fluoro-4-methoxy-1H-1,3-benzodiazol-2-yl)-N-methylpyridin-2-amine]: the concentration giving a half-maximal response (EC50) in assay [1] lay in the range of 0.1 to 1 nM. In addition, the “hSST4/hSST2 (ratio)” value in the assay on hSSTR2 vs. hSSTR4 (Table C) is “a (a = above 50,)”.

In assay [1], `COc1cc(F)cc2[nH]c(-c3c(N)ncc(-c4cc(C)cc(F)c4)c3N3CC[C@@H]4NCCO[C@H]4C3)nc12` [Compound 3-14, 4-[(4αS, 8αS)-octahydro-1H-pyrido[3,4-b][1,4]oxazin-6-yl]-3-(6-fluoro-4-methoxy-1H-1,3-benzodiazol-2-yl)-5-(3-fluoro-5-methylphenyl)pyridin-2-amine] came in with an EC50 of less than 0.1 nM.

`CNc1ncc(-c2cc(C)cc(F)c2)c(N2CCC3OCCNC3C2)c1-c1nc2c(OC)cc(F)cc2[nH]1` (centres unmarked) [Compound 3-15, 4-[(4αS,8αS)-octahydro-1H-pyrido[3,4-b][1,4]oxazin-6-yl]-3-(6-fluoro-4-methoxy-1H-1,3-benzodiazol-2-yl)-5-(3-fluoro-5-methylphenyl)-N-methylpyridin-2-amine] showed a concentration giving a half-maximal response (EC50) in assay [1] of less than 0.1 nM.

In turn, `COc1cc(C#N)cc2[nH]c(-c3c(N)ncc(-c4cc(C)cc(F)c4)c3N3CC[C@@H]4NCCO[C@H]4C3)nc12` [Compound 3-16, 2-{4-[(4αS,8αS)-octahydro-1H-pyrido[3,4-b][1,4]oxazin-6-yl]-2-amino-5-(3-fluoro-5-methylphenyl)pyridin-3-yl}-4-methoxy-1H-1,3-benzodiazole-6-carbonitrile] yielded a half-maximal effective concentration (EC50) in assay [1] of less than 0.1 nM.

In assay [1], `COc1cc(F)cc2[nH]c(-c3c(N)ncc(-c4cc(F)cc(Cl)c4)c3N3CC[C@@H]4OCCN[C@H]4C3)nc12` [Compound 3-17, 4-[(4αS,8αS)-octahydro-1H-pyrido[3,4-b][1,4]oxazin-6-yl]-5-(3-chloro-5-fluorophenyl)-3-(6-fluoro-4-methoxy-1H-1,3-benzodiazol-2-yl)pyridin-2-amine] returned an EC50 of less than 0.1 nM. For the same compound, in the assay with hSSTR2 vs. hSSTR4 (Table C), the “hSST4/hSST2 (ratio)” value is “c (c = between 2.5 and 15;)”.
